In test [1] the test system is protease activity of NEV fractions. As to the kind of experiment: In vitro protease cleavage activity of NEV viral protein fractions (fluorescence assay). It counts as biochemical. To be noted: inhibitor 10 μM; Phe-Phe substrate pH 3 and 4, HIV substrate 1 pH 5; fractions 12, 15 and 16. The method, then:
To assess for in vitro proteolytic cleavage activity, cell infections were performed in serum free media conditions. Day 5-7 p.i. viral particles were concentrated and extensively washed with HBSS in Vivaspin 100 kDa (Sartorius) columns. Concentrated viral particles were lysed in 0.1% SDS and submitted to analytical size-exclusion chromatography on a Superdex 200 5/150 GL (GE Healthcare Life Sciences) column connected to a Prominence HPLC system (Shimadzu Corporation, Tokyo, Japan). The column was equilibrated in 20 mM phosphate buffer pH 7.5 containing 150 mM NaCl.
The protease activity was determined by fluorescence assays in 96-well plates in a Gemini EM Fluorescence Microplate Reader, using the HIV Protease Substrate 1 Arg-Glu(EDANS)-Ser-Gln-Asn-Tyr-Pro-Ile-Val-Gln-Lys(DABCYL)-Arg (Sigma Aldrich) or the Phe-Phe substrate. For determination of the pH profile, viral particles were assayed for activity at 37° C. in buffers ranging between pH 3 and 6 (50 mM sodium acetate pH 3.0, 4.0, 5.0, and 6.0; 50 mM Tris-HCl […]) containing 100 mM NaCl. To test the specificity of enzymatic cleavage, Indinavir (Sigma Aldrich), a specific inhibitors of HIV protease, or pepstatin were used. The protease was pre-incubated in the presence of the inhibitor. […] The rate of substrate hydrolysis was monitored for 3 hours by the increase of intensity with excitation/emission wavelengths of 328/393 nm.

The next test relates to mab#4G6E4. As to the kind of experiment: ELISA dose response of mab#4G6E4 on peptide-coated wells. It counts as binding, Mouse. The procedure: For that, serial dilutions of peptides in duplicates (1:1.3 or 1:1.4 in 0.05M carbonate buffer pH=9.3) ranging between 5 to 500 ng/mL were covalently linked to 96 microwell Poylsorp amino plates (Nunc, Thermofisher) for two hours at room temperature. To remove unbound peptide, plates were washed three times with PBS-Tween20 (0.005%) in an automated Wellwasher apparatus (Thermoscientific). After washing, plates were blocked by adding 300 microliters/well of Superblock T20 in PBS (Thermoscientific, Pierce). Superblock T20 was immediately removed and plates inverted till drying out. After blocked and dried plates were ready for c-ELISA or to be stored at 4-8° C. for further testing. […]
A rapid (2 hours) c-ELISA procedure was performed as follows: 70 ng/mL of mab#4G6E4 alone (50 microliters) diluted in dilution buffer was added to peptide-coated wells and incubated for 1 hour at 37° C. After 1 hour of incubation plates were extensively washed with 300 microliters of PBS-Tween20 (0.05%) for three times. The plate was after that incubated with a secondary goat anti-mouse IgG-HRP (Sigma Aldrich) at 1:2500 dilution and incubated for 30 minutes at 37° C. Plates were washed again four times with 300 microliters of PBS-Tween20 (0.05%) and signal developed by adding 50 microliters of fresh TMB reagent (Sigma Aldrich) for 15 minutes at room temperature. After colour development the reaction was stopped by adding 50 microliters of 1N H2SO4 (Sigma Aldrich). Determination of absorbance was obtained by reading plates at 450 nm in a Multiskan Go ELISA reader (Thermoscientific).
Dose responses curves were analysed by GraphPad Prism 6.0 software by using the four parameter function log(agonist) vs response with a variable slope. […] The Hill slope was very high for both peptides 7.2 for SEQ ID NO: 159 and 6.6 for SEQ ID NO: 20. The results are indicating high affinity between the mab and the peptide sequences (FIG. 6A1).
Furthermore dose response curves were optimized in order to decrease the Hill Slope and turn the assay more sensitive. […]

Setting [2] is: 70 ng/mL mab#4G6E4 diluted in 3% BSA, peptide 5 to 500 ng/mL, four parameter fit.

The values that follow come from patent US20160367659A1, “VIRAL PEPTIDES” (EQUIGERMINAL SA, priority 2013, published 2016).

In general, EC50 refers to the concentration giving half of the maximal effect. Lower therefore signals a more potent agent.

Where a SMILES comes first, the peptide text is derived from it. [ ]: non-standard residue; d: D form. The star is where a group is joined. Sta = CC(C)C[C@H](N)[C@@H](O)CC(=O)O; Isovaleryl = CC(C)CC(=O)*

On to `CC(C)(C)NC(=O)[C@@H]1CN(Cc2cccnc2)CCN1C[C@@H](O)C[C@@H](Cc1ccccc1)C(=O)N[C@H]1c2ccccc2C[C@H]1O` [Indinavir], for which, in test [1], the “inhibition of the protease activity of NEV fractions” value is “able to inhibit”.

Take `CC(C)CC(=O)N[C@H](C(=O)N[C@H](C(=O)N[C@@H](CC(C)C)[C@@H](O)CC(=O)N[C@@H](C)C(=O)N[C@@H](CC(C)C)[C@@H](O)CC(=O)O)C(C)C)C(C)C` [pepstatin] (Isovaleryl-VV[Sta]A[Sta]-OH): the “inhibition of the protease activity of NEV fractions” value in test [1] is given as “able to inhibit”.

For “EALDKIEEIQNKNKQKAAAQEQNPPPSVSLRSLFG [SEQ ID NO: 159]”, the EC50 was determined as 0.1635 µg/mL in the test with mab#4G6E4 (setting [2]) and 0.059 µg/mL in the test with mab#4G6E4 (mab#4G6E4 (70 ng/mL) in 0.025% casein blocking instead of 3% BSA).

In turn, QEQNPPPSVSLRSLFGNDPL [SEQ ID NO: 20] had an EC50 in the test with mab#4G6E4 (setting [2]) of 0.1937 µg/mL.
